Where two headings read alike, the source gives them in different places.
Columns and labels:
human glucagon receptor = target: T1, human glucagon receptor (Homo sapiens, UniProt P47871); assay: Glucagon Binding Assay (II)
T1 construct: expressed in transfected cells; host or cells: BHK (baby hamster kidney) cells, membrane preparation
Summary of the method: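 Membranes from BHK cells transfected with the human glucagon receptor were incubated with test compound (in DMSO) in HEPES buffer pH 7.5 with Ca2+/Mg2+ and WGA beads for 4 h, then settled 8–48 h before scintillation counting. Non-specific binding was defined with 500 nM glucagon.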

human GIP receptor = target: T2, human GIP receptor (Homo sapiens, UniProt P48546); assay: GIP Binding Assay; conditions: membranes of BHK cells transfected with human GIP receptor, 125I-GIP, SPA; read-out: GIP Bd Assay IC50
T2 construct: expressed in transfected cells; host or cells: BHK (baby hamster kidney) cells, membrane preparation
T2 sequence (P48546 22-466): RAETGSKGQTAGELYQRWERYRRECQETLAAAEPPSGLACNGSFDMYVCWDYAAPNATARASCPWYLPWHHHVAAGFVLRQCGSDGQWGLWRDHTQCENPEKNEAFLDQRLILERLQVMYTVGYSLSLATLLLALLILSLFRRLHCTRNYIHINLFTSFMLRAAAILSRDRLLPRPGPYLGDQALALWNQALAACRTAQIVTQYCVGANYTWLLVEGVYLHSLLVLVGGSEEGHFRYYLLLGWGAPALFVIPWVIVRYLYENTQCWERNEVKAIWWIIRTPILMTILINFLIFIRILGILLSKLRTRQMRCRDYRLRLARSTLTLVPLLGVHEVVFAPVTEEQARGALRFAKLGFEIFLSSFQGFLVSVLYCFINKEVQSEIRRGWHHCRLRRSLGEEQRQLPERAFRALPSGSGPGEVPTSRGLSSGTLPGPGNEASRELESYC
Summary of the method: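 Membranes from BHK cells transfected with human GIP receptor; competition binding in HEPES pH 7.5 buffer with Ca2+/Mg2+, compounds added in DMSO, WGA SPA beads. Incubated 3.5 h shaking, settled 8-48 h, then scintillation counted; non-specific binding defined with 500 nM GIP.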

[1] = membranes of BHK cells transfected with human glucagon receptor, 125I-glucagon, SPA, read-out: Glu Bd Assay (II) IC50

T1 sequence (P47871 26-477): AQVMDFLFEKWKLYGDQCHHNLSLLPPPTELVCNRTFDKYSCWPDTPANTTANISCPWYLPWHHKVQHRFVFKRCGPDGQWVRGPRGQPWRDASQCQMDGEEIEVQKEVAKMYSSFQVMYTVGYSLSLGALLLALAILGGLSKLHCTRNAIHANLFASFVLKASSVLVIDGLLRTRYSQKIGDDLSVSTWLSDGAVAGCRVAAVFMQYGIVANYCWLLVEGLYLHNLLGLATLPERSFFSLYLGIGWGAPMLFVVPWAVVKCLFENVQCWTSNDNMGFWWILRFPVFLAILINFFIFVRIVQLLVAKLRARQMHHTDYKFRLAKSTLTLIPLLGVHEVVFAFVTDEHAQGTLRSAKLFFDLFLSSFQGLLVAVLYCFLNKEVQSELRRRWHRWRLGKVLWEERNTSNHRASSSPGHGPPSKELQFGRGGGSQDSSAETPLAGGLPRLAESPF

| SMILES | IC50 (human glucagon receptor; [1]) [nM] | IC50 (human GIP receptor) [nM] | melting point [°C] | IC50 (human glucagon receptor) [nM] |
| --- | --- | --- | --- | --- |
| CC(C)(C)[C@H]1CC[C@H](N(Cc2ccc(C(=O)NC[C@H](O)C(=O)O)cc2)C(=O)Nc2cc(C(F)(F)F)cc(C(F)(F)F)c2)CC1 [Example 13, (S)-Trans-3-{4-[3-(3,5-Bis(trifluoromethyl)phenyl)-1-(4-tert-butylcyclohexyl)ureidomethyl]benzoylamino}-2-hydroxypropionic acid] | 228 | 700 | 185 to 187 |  |
| CC(C)(C)[C@H]1CC[C@H](N(Cc2ccc(C(=O)NC[C@@H](O)C(=O)O)cc2)C(=O)Nc2cc(C(F)(F)F)cc(C(F)(F)F)c2)CC1 [Example 14, (R)-Trans-3-{4-[3-(3,5-bis(trifluoromethyl)phenyl)-1-(4-tert-butylcyclohexyl)ureidomethyl]benzoylamino}-2-hydroxypropionic acid] | 19 | 274 | 184 to 187 |  |
| CC(C)(C)C1CC=C(c2ccc(N(Cc3ccc(C(=O)NC[C@@H](O)C(=O)O)cc3)C(=O)Nc3cc(Cl)cc(Cl)c3)cc2)CC1 (stereo partly drawn) [Example 33, 3-{4-[1-[4-(4-tert-Butylcyclohex-1-enyl)phenyl]-3-(3,5-dichlorophenyl)ureidomethyl]benzoyl-amino}-2-(R)-hydroxypropionic Acid] | 12 | 189 | 151 to 155 |  |
| CC(=O)c1ccc(NC(=O)N(Cc2ccc(C(=O)NC[C@@H](O)C(=O)O)cc2)c2ccc(C3CCCCC3)cc2)cc1 [Example 53, (R)-3-{4-[3-(4-Acetylphenyl)-1-(4-cyclohexylphenyl)ureidomethyl]benzoylamino}-2-hydroxypropionic acid] | 390 | > 3000 |  |  |
| O=C(NC[C@@H](O)C(=O)O)c1ccc(CN(C(=O)Nc2cc(F)cc(F)c2)c2ccc(C3CCCCC3)cc2)cc1 [Example 55, (R)-3-{4-[1-(4-Cyclohexylphenyl)-3-(3,5-difluorophenyl)ureidomethyl]benzoylamino}-2-hydroxypropionic acid] | 50 | 427 |  |  |
| CC(C)(C)C1CCC(N(Cc2ccc(C(=O)NC[C@@H](O)C(=O)O)cc2)C(=O)Cc2ccc(OC(F)(F)F)cc2)CC1 (stereo partly drawn) [Example 56, (R)-3-[4-({(4-tert-Butylcyclohexyl)-[2-(4-trifluoromethoxyphenyl)acetyl]amino}methyl)benzoylamino]-2-hydroxypropionic acid] | 228 | 1370 |  |  |
| CC(C)(C)C1CCC(N(Cc2ccc(C(=O)NC[C@@H](O)C(=O)O)cc2)C(=O)Cc2cc(F)cc(C(F)(F)F)c2)CC1 (stereo partly drawn) [Example 57, (R)-3-[4-({(4-tert-Butylcyclohexyl)-[2-(3-fluoro-5-trifluoromethylphenyl)acetyl]amino}methyl)benzoylamino]-2-hydroxypropionic acid] | 439 | > 3000 |  |  |
| O=C(NC[C@@H](O)C(=O)O)c1ccc(CN(CC(c2ccccc2)c2ccccc2)C(=O)Cc2cc(F)cc(C(F)(F)F)c2)cc1 [Example 58, (R)-3-[4-({(2,2-Diphenylethyl)-[2-(3-fluoro-5-trifluoromethylphenyl)acetyl]amino}methyl)benzoylamino]-2-hydroxypropionic acid] | 957 | > 3000 |  |  |
| O=C(NC[C@@H](O)C(=O)O)c1ccc(CN(CC(c2ccccc2)c2ccccc2)C(=O)c2csc3ccc(Cl)cc23)cc1 [Example 59, (R)-3-(4-{[(5-Chlorobenzo[b]thiophene-3-carbonyl)-(2,2-diphenylethyl)amino]methyl}benzoylamino)-2-hydroxypropionic acid] | 594 | > 3000 |  |  |
| O=C(NC[C@@H](O)C(=O)O)c1ccc(CN(CC(c2ccccc2)c2ccccc2)C(=O)Cc2ccc(OC(F)(F)F)cc2)cc1 [Example 60, (R)-3-[4-({(2,2-Diphenylethyl)-[2-(4-trifluoromethoxyphenyl)acetyl]amino}methyl)benzoylamino]-2-hydroxypropionic acid] | 1020 | > 3000 |  |  |
| CC(C)(C)C1CCC(N(Cc2ccc(C(=O)NC[C@@H](O)C(=O)O)cc2)C(=O)c2csc3ccc(Cl)cc23)CC1 (stereo partly drawn) [Example 61, (R)-3-(4-{[(4-tert-Butylcyclohexyl)-(5-chlorobenzo[b]thiophene-3-carbonyl)amino]methyl}-benzoylamino)-2-hydroxypropionic acid] | 754 | > 3000 |  |  |

Next, values leading:

| IC50 (human glucagon receptor; [1]) [nM] | IC50 (human GIP receptor) [nM] | melting point [°C] | IC50 (human glucagon receptor) [nM] | SMILES |
| --- | --- | --- | --- | --- |
| 757 | > 3000 |  |  | O=C(NC[C@@H](O)C(=O)O)c1ccc(CN(CC(c2ccccc2)c2ccccc2)C(=O)c2cc3cc(OC(F)(F)F)ccc3[nH]2)cc1 [Example 62, (R)-3-(4-{[(2,2-Diphenylethyl)-(5-trifluoromethoxy-1H-indole-2-carbonyl)amino]methyl}-benzoylamino)-2-hydroxypropionic acid] |
| 336 | > 3000 |  |  | O=C(NC[C@@H](O)C(=O)O)c1ccc(CN(C(=O)Cc2ccc(OC(F)(F)F)cc2)c2ccc(C3CCCCC3)cc2)cc1 [Example 63, (R)-3-[4-({(4-Cyclohexylphenyl)-[(4-trifluoromethoxyphenyl)acetyl]amino}methyl)benzoylamino]-2-hydroxypropionic acid] |
| 514 | > 3000 |  |  | O=C(NC[C@@H](O)C(=O)O)c1ccc(CN(C(=O)Cc2cccc(OC(F)(F)F)c2)c2ccc(C3CCCCC3)cc2)cc1 [Example 64, (R)-3-[4-({(4-Cyclohexylphenyl)-[(3-trifluoromethoxyphenyl)acetyl]amino}methyl)benzoylamino]-2-hydroxypropionic acid] |
| 520 | > 3000 |  |  | O=C(NC[C@@H](O)C(=O)O)c1ccc(CN(C(=O)Cc2cc(F)cc(C(F)(F)F)c2)c2ccc(C3CCCCC3)cc2)cc1 [Example 65, (R)-3-[4-({(4-Cyclohexylphenyl)-[(3-fluoro-5-trifluoromethylphenyl)acetyl]amino}methyl)benzoylamino]-2-hydroxypropionic acid] |
| 325 | > 3000 |  |  | O=C(NC[C@@H](O)C(=O)O)c1ccc(CN(C(=O)Cc2cc(C(F)(F)F)cc(C(F)(F)F)c2)c2ccc(C3CCCCC3)cc2)cc1 [Example 66, (R)-3-(4-{([(3,5-Bis(trifluoromethyl)phenyl)acetyl]-(4-cyclohexylphenyl)amino)methyl}benzoylamino)-2-hydroxypropionic acid] |
| 520 | > 3000 |  |  | O=C(NC[C@@H](O)C(=O)O)c1ccc(CN(C(=O)Cc2cccc(C(F)(F)F)c2)c2ccc(C3CCCCC3)cc2)cc1 [Example 67, (R)-3-[4-({(4-Cyclohexylphenyl)-[(3-trifluoromethylphenyl)acetyl]amino}methyl)benzoylamino]-2-hydroxypropionic acid] |
|  | > 3000 |  | 528 | O=C(NC[C@@H](O)C(=O)O)c1ccc(CN(C(=O)Cc2ccc(Cl)c(Cl)c2)c2ccc(C3CCCCC3)cc2)cc1 [Example 68, (R)-3-[4-({(4-Cyclohexylphenyl)-[(3,4-dichlorophenyl)acetyl]amino}methyl)benzoylamino]-2-hydroxypropionic acid] |
| 430 | > 3000 |  |  | O=C(NC[C@@H](O)C(=O)O)c1ccc(CN(C(=O)Cc2cccc(Br)c2)c2ccc(C3CCCCC3)cc2)cc1 [Example 69, (R)-3-(4-{[[(3-Bromophenyl)acetyl]-(4-cyclohexylphenyl)amino]methyl}benzoylamino)-2-hydroxypropionic acid] |
| 740 | > 3000 |  |  | O=C(NC[C@@H](O)C(=O)O)c1ccc(CN(C(=O)Cc2ccc(-c3ccccc3)cc2)c2ccc(C3CCCCC3)cc2)cc1 [Example 70, (R)-3-(4-{[(Biphenyl-4-ylacetyl)-(4-cyclohexylphenyl)amino]methyl}benzoylamino)-2-hydroxypropionic acid] |
| 886 | > 3000 |  |  | O=C(NC[C@@H](O)C(=O)O)c1ccc(CN(C(=O)Cc2ccc3ccccc3c2)c2ccc(C3CCCCC3)cc2)cc1 [Example 71, (R)-3-(4-{[(4-Cyclohexylphenyl)-(2-naphthylacetyl)amino]methyl}benzoylamino)-2-hydroxypropionic acid] |
| 542 | > 3000 |  |  | O=C(NC[C@@H](O)C(=O)O)c1ccc(CN(C(=O)CCc2cc(C(F)(F)F)cc(C(F)(F)F)c2)c2ccc(C3CCCCC3)cc2)cc1 [Example 72, (R)-3-(4-{[(3-(3,5-Bis(trifluoromethyl)phenyl)propionyl)-(4-cyclohexylphenyl)amino]methyl}benzoylamino)-2-hydroxypropionic acid] |
| 680 | > 3000 |  |  | O=C(NC[C@@H](O)C(=O)O)c1ccc(CN(C(=O)CCc2cccc([N+](=O)[O-])c2)c2ccc(C3CCCCC3)cc2)cc1 [Example 73, (R)-3-[4-({(4-Cyclohexylphenyl)-[3-(3-nitrophenyl)propionyl]amino}methyl)benzoylamino]-2-hydroxypropionic acid] |

From patent publication US6953812B2, “Glucagon antagonists/inverse agonists” (Novo Nordisk, Inc., priority 2000, dated 2005)
